Values quoted from earlier work in patent publication US8883844B2, “Nitric oxide releasing amino acid ester for treatment of pulmonary hypertension and other respiratory conditions” (Nitrogenix Inc., priority 2010, dated 2014).
Where two headings read alike, the source gives them in different places.

What was measured:
[1] = open pilot study
[2] = oral; 3, 6, 9 and 12 months

## Cc1cc2c(cc1CC(=O)c1sccc1S(=O)(=O)Nc1onc(C)c1Cl)OCO2 [sitaxsentan]
[1]
  decrease in pulmonary vascular resistance: 30%
  six minute walk test: improvement

## COc1ccccc1Oc1c(NS(=O)(=O)c2ccc(C(C)(C)C)cc2)nc(-c2ncccn2)nc1OCCO [bosentan]
Higher dose
  liver toxicity: liver toxicity occurred
Two placebo controlled trials, whole group, improvement greater at higher doses
  six minute walk test: improved

## CC#CCC(C)[C@H](O)/C=C/[C@@H]1[C@H]2c3cccc(CCCC(=O)O)c3O[C@H]2C[C@H]1O (mixture of isomers) [Beraprost, beraprost]
[2]
  benefit in PAH: benefit in a study in PAH at 3 and 6 months but not at 9 or 12 months
